According to publication PMC7367873, “Dissecting the sequence determinants for dephosphorylation by the catalytic subunits of phosphatases PP1 and PP2A” (Nature Communications, 2020):

What was measured:
GAB2-pS210 = assay: In vitro dephosphorylation of GAB2-pS210 (Western blot); type: biochemical, human; settings: GAB2-pS210 relative to GAB2, Calyculin A 20 nM 12 min in HeLa Kyoto cells, recombinant PP1c 1 µM, 1 h at 30 °C in lysate
Method: pEGFP(C1)-14-3-3β or pCMV-GAB2-3FLAG was transfected into HeLa Kyoto cells as described in the respective section for 24 h. Cells were incubated with or w/o 20 nM Calyculin A (# 9902 S, Cell Signaling Technology) in complete growth media for 12 min. Cells were washed twice on ice with cold PBS and after addition of 500 µL lysis buffer (100 mM NaCl, 10 mM Tris, 0.1% IGEPAL, 1 mM EDTA, 1 mM EGTA, 20 nM Calyculin A, 1x cOmplete Mini protease inhibitor cocktail (Sigma), 2 mM DTT, 2 mM MnCl2) cells were scraped from plates, lysed by 10 pushes through an injection needle and the insoluble fraction was pelleted by centrifugation (10 min, 10^4 rcf, 4 °C). […] Beads were then washed three times with lysis buffer and samples were eluted in 1x SDS sample buffer by heating to 95 °C for 10 min and further analyzed by SDS PAGE for 14-3-3/GAB2 association and phosphorylation status of GAB2-pS210.
For SDS-PAGE, samples were loaded on NuPAGE™ 4-12% Bis-Tris protein gels (Invitrogen) and gel electrophoresis was performed at 180 V constant in 1x MOPS buffer. […] All blots were quantified using raw images and ImageLab software (v6.0.1, BioRad): Files were imported and analyzed without further modifications. […] The quantification was exported from the analysis table and measurements of background adjusted band volumes where used for further normalization steps and graphical depiction. […]

PP1/PP2A = settings: 20 nM Calyculin A in cell culture medium and lysis buffer; ref PMID 30338897; cited from earlier work
Description: page 8: an adjusted p-value <0.01 are highlighted in bold in the heat-map comparing PP1c/PP2Ac. […] Furthermore, this new comparison also brought to our attention an apparently very strong differential effect of Pro in +1. We have therefore synthesized the Cterm peptide AAAApTPFGAK. Like in the case of ba ...

[1] = test system: GAB2/GFP-14-3-3β interaction; assay: GAB2/14-3-3 binding assay (GFP-14-3-3β pull-down, Western blot); set-up: species or system human
Method: pEGFP(C1)-14-3-3β or pCMV-GAB2-3FLAG was transfected into HeLa Kyoto cells as described in the respective section for 24 h. Cells were incubated with or w/o 20 nM Calyculin A (# 9902 S, Cell Signaling Technology) in complete growth media for 12 min. Cells were washed twice on ice with cold PBS and after addition of 500 µL lysis buffer (100 mM NaCl, 10 mM Tris, 0.1% IGEPAL, 1 mM EDTA, 1 mM EGTA, 20 nM Calyculin A, 1x cOmplete Mini protease inhibitor cocktail (Sigma), 2 mM DTT, 2 mM MnCl2) cells were scraped from plates, lysed by 10 pushes through an injection needle and the insoluble fraction was pelleted by centrifugation (10 min, 10^4 rcf, 4 °C). Supernatants were then subjected to incubation with 1 µM recombinant PP1c (if not indicated otherwise) or buffer for 1 h at 30 °C. […] Next, we subjected samples to immunoprecipitation/pull-down using 25 µL of α-FLAG M2 magnetic bead slurry (Sigma-Aldrich) or an equal volume of bead-coupled α-GFP nanobodies (EMBL PEPcore Core Facility) for 2 h at 4 °C. Beads were then washed three times with lysis buffer and samples were eluted in 1x SDS sample buffer by heating to 95 °C for 10 min and further analyzed by SDS PAGE for 14-3-3/GAB2 association and phosphorylation status of GAB2-pS210.
For SDS-PAGE, samples were loaded on NuPAGE™ 4-12% Bis-Tris protein gels (Invitrogen) and gel electrophoresis was performed at 180 V constant in 1x MOPS buffer. Samples were transferred onto CN blotting membranes (0.45 µm, neoLab) by wet blotting. Membranes were stained using Ponceau, followed by blocking with Tris-buffered saline with 0.1% Tween (TBS-T) containing 5% (w/v) non-fat milk for 45 min at room temperature. After three washes (5 min), membranes were then incubated with the following antibodies in TBS-T with 5% BSA overnight at 4 °C: α-GFP (1:2000, Abcam, ab6556), α-GAB2 (1:1000, CST, #3239), α-GAB2-pS210 (1:250, Symansis, customized purification), α-FLAG (1:1000, M2, Sigma-Aldrich, F3165), α-pan14-3-3 (1:500, SCBT, sc-629), α-PP1 (1:1000, SCBT, sc-7482), α-PP2A (1:1000, SCBT, sc-130237) or α-6His (1:2000, Abcam, ab9108). Afterwards blots were washed three times in TBS-T and incubated with goat anti-mouse IgG-peroxidase conjugate (1:2500, Sigma, A0168), donkey anti-rabbit IgG-horseradish peroxidase (HRP) conjugate (1:2500, GE Healthcare, GENA934), or rabbit anti-sheep IgG (H + L) HRP conjugate (1:2500, Thermo Fisher Scientific, 61-8620) for 2 h at room temperature. […] All blots were quantified using raw images and ImageLab software (v6.0.1, BioRad): Files were imported and analyzed without further modifications. […] The quantification was exported from the analysis table and measurements of background adjusted band volumes where used for further normalization steps and graphical depiction. […]

[2] = test system: mKate2-GAB2 localization in HeLa Kyoto cells; assay: GAB2 recruitment to the plasma membrane, live-cell confocal microscopy, HeLa Kyoto; type: cell-based, human; settings: starved, 5 min, EGF 100 ng/mL, PDP-Nal/PDPm-Nal 50 µM, n = 44/56/31 cells for EGF/PDP-Nal/PDPm-Nal
Method: (§1) The cells were seeded on 8-well ibiTreat µslides (Ibidi) and transfected as described in the respective section. In order to serum-starve cells for 45 min to 1 h before imaging, cells were washed twice with warm PBS and cultivated in 200 µL DMEM without FBS and phenol red (Gibco) supplemented with 1 g/L L-glutamine and 1% penicillin/streptomycin. For imaging, cells were then mounted in an Okolab stage incubator system (37 °C, 5% CO2 using an H101-CRYO-BL temperature controller, CO2-O2 UNIT-BL gas controller, H101-HM active humidity controller and incubation chamber H101-NIKON-TI-S-ER). All images were acquired with the A1R Confocal Scanning System equipped on a Nikon Ti-E inverted microscope installed with an Apo TIRF 100x DIC N2 1.49 NA Oil objective. […] Images were acquired using the GaAsP detectors controlled with the NIS Elements 4.50 operating software. Time-lapse-experiments consisted of an image acquisition interval of 15 s for at least 12 min for each sample condition separately using an exposure time of 0.5 frames per second. Cells were treated after frame 3 by adding 100 µL of starvation media (see above) with 300 ng/mL EGF (Gibco) or 150 µM PDP(m)-Nal resulting in final concentrations of 100 ng/mL for EGF and 50 µM for PDPs.
For image analysis, microscopy files were loaded into Fiji v2.0.0-rc-34/1.50a. […]

[3] = test system: mKate2-GAB2 localization in SW-480 cells; assay: GAB2 recruitment to the plasma membrane, live-cell confocal microscopy, SW-480; type: cell-based, human; settings: SW-480, starved, 12 min; EGF 100 ng/mL; PDP-Nal/PDPm-Nal 50 µM; n = 20/19/26 cells for EGF/PDP-Nal/PDPm-Nal
Method: as §1, with “Cells were treated after frame 3 by adding 100 µL of starvation media (see above) with 300 ng/mL EGF (Gibco) or 150 µM PDP(m)-Nal resulting in final concentrations of 100 ng/mL for EGF and 50 µM for PDPs.” left out
(§2) Supplementary Figure 8. […] For Caco-2 BBe1 the following number (n) of cells were analyzed: 19 (EGF), 13 (PDP-Nal), 13 (PDPm-Nal); for SW-480: 20 (EGF), 19 (PDP-Nal), […]

[4] = test system: mKate2-GAB2 localization in Caco-2 BBe1 cells; assay: GAB2 recruitment to the plasma membrane, live-cell confocal microscopy, Caco-2 BBe1; type: cell-based, human; settings: Caco-2 BBe1, starved, 12 min; EGF 100 ng/mL; PDP-Nal/PDPm-Nal 50 µM; n = 19/13/13 cells for EGF/PDP-Nal/PDPm-Nal
Method: as §1, with “Cells were treated after frame 3 by adding 100 µL of starvation media (see above) with 300 ng/mL EGF (Gibco) or 150 µM PDP(m)-Nal resulting in final concentrations of 100 ng/mL for EGF and 50 µM for PDPs.” left out
as §2

Molecule | p-level of GAB2 pS210 (GAB2-pS210) | stabilization of phosphorylation of PP1/PP2A substrate sites (such as Ser259 of CRAF/Raf-1) (PP1/PP2A) | interaction of GAB2 with overexpressed GFP-14-3-3β ([1]; Calyculin A 20 nM in cells, recombinant PP1c in lysate 1 h at 30 °C, PP1c-concentration-dependent, three independent experiments) | interaction of GAB2 with GFP-14-3-3β, PP1c pre-inhibited ([1]; recombinant PP1c mixed with equimolar Calyculin A for 5–10 min before addition to lysate) | GAB2 recruitment to the plasma membrane [2] | GAB2 recruitment to the plasma membrane [3] | GAB2 recruitment to the plasma membrane [4]
COC[C@@H]([C@H](O)[C@H](O)C(=O)NCC[C@H](C)c1nc(/C=C/C[C@@H]2O[C@]3(C[C@@H](O)[C@@H]2C)O[C@H]([C@H](C[C@H](O)[C@H](C)[C@H](O)[C@H](C)/C=C(C)/C(C)=C/C=C/C(C)=C\C#N)OC)[C@H](OP(=O)(O)O)C3(C)C)co1)N(C)C [Calyculin A, reference compound] | increased | stabilize | strongly increased | abolishes the effect | – | – | –
EGF: epidermal growth factor (Gibco) | – | – | – | – | GAB2 recruitment to the plasma membrane | GAB2 recruitment to the plasma membrane | GAB2 recruitment to the plasma membrane
